Assay results: article PMC6499206, “Quantification of Volatile Metabolites Derived From Garlic (Allium sativum) in Human Urine” (Frontiers in Nutrition, 2019)

Test: Quantification of garlic-derived metabolites in human urine after ingestion of 3 g raw garlic (SIDA, SAFE, HRGC-MS / HRGC-GC-MS)
Assay type: in vivo
Conditions: 3 g raw garlic
Description: Human urine samples were obtained from 18 volunteers (age 22–38 years, mean 27 years; 11 females, 7 males); thereby, one volunteer conducted the whole experimental series twice. At the time of examination, volunteers reported no known illness that might have potentially influenced the metabolism or the excretion of urine. The test persons were instructed to avoid foods that were rich in sulfur-containing substances at the testing day as well as 2 days preceding the testing day, namely garlic, onion, wild garlic, chives, cabbage, and leek, and were only allowed to consume the garlic sample provided in the course of the experiments. Additionally, subjects were asked to keep records of the food (including food supplements) and beverages they consumed during these 3 testing days. Generally, the overall panelists' requirements were in accordance with our previous studies ([5], [16]).
On the sampling day, the outer garlic cloves of a whole garlic bulb were peeled and cut into ~3 mm cubes by using a garlic cutter (Genius GmbH, Limburg/Lahn, Germany). Subsequently these cubes were thoroughly mixed and aliquoted into 3 g portions. Three to four test persons conducted the experiment at the same day. Each test person was asked to ingest a garlic portion of 3 g. In total, eight consecutive urine samples were provided by each test person, comprising one whole urine set. The samples were collected in sterile brown glass bottles, with sampling times as follows: one sample was provided directly prior to garlic consumption. The series of the second to eighth sample was then obtained at about 0.5, 1, 2, 4, 6, 8, and 24 h after garlic consumption, respectively. Between the first urine sample (prior to garlic consumption) and the seventh urine sample (8 h after garlic consumption) test persons only spent urine at the specific time points mentioned before. Another sample was provided at the next morning (24 h after garlic consumption). Between the samples provided 8 and 24 h after garlic consumption no urine was collected. All samples were immediately placed into a −80°C freezer and were kept frozen until further analysis.
The samples of each set were termed according to their sampling time. The following list provides the time intervals that are related to the respective sample name: • - pre: before garlic consumption • - 0.5 h post: 0.4–0.8 h after garlic consumption • - 1 h post: 0.9–1.3 h after garlic consumption • - 2 h post: 1.8 h−2.2 h after garlic consumption • - 4 h post: 3.8–4.4 h after garlic consumption • - 6 h post: 5.8–6.4 h after garlic consumption • - 8 h post: 7.8–8.4 h after garlic consumption • - 24 h post: 23.8–25.6 h after garlic consumption
A creatinine kit (Labor+Technik Eberhard Lehmann GmbH, Berlin, Germany) was used to determine the creatinine content in each urine sample. The determination principle of this kit is based on the reaction of creatinine with picric acid under basic conditions (Jaffé reaction). The formed complex was detected photometrically at a wavelength of 492 nm.
For quantification purposes, the deuterated standards ^2H3-AMS, ^2H3-AMSO, and ^2H3-AMSO2 were added to the sample and stirred for 10 min. Subsequently, DCM was added in a ratio of 1:2 (DCM/human urine; v/v) and this solution was stirred for further 30 min at room temperature. To isolate the volatile fraction from the urine samples we then applied SAFE-distillation ([17]), thereby distilling the respective samples at 50°C. After completion of the distillation process, 10 mL of DCM were applied in each case to rinse the SAFE apparatus and to ensure complete transition of the volatile compounds. This process was repeated with another 10 mL of DCM. After thawing, the obtained aqueous distillate phase was extracted three times with 25 mL DCM. The organic phases were combined, dried over anhydrous Na2SO4 and concentrated to a total volume of 100 μL by means of Vigreux distillation and subsequent micro-distillation at 50°C. […]

C=CCSC [AMS, allyl methyl sulfide]
metabolite concentration in urine, creatinine-normalized (U VII, 1 h post (1.08 h)): 0.8 µg/mmol creatinine | metabolite concentration in urine (U VII, 2 h post (2.00 h)): 0.8 µg/kg | metabolite concentration in urine, creatinine-normalized (U VII, 2 h post (2.00 h)): 0.8 µg/mmol creatinine | metabolite concentration in urine (U VII, 4 h post (4.00 h)): 0.6 µg/kg | metabolite concentration in urine, creatinine-normalized (U VII, 4 h post (4.00 h)): 0.3 µg/mmol creatinine | metabolite concentration in urine (U VII, 6 h post (6.00 h)): 0.7 µg/kg | metabolite concentration in urine, creatinine-normalized (U VII, 6 h post (6.00 h)): 0.2 µg/mmol creatinine | metabolite concentration in urine (U VII, 8 h post (8.00 h)): 0.4 µg/kg | metabolite concentration in urine, creatinine-normalized (U VII, 8 h post (8.00 h)): 0.2 µg/mmol creatinine | metabolite concentration in urine (U VII, 24 h post (24.00 h)): traces^1 | metabolite concentration in urine, creatinine-normalized (U VII, 24 h post (24.00 h)): traces^1 | metabolite concentration in urine (U VII, pre (-0.25 h)): traces^1 | metabolite concentration in urine, creatinine-normalized (U VII, pre (-0.25 h)): traces^1 | metabolite concentration in urine (U VIII, 0.5 h post (0.52 h)): 1.9 µg/kg | metabolite concentration in urine, creatinine-normalized (U VIII, 0.5 h post (0.52 h)): 2.3 µg/mmol creatinine | metabolite concentration in urine (U VIII, 1 h post (1.08 h)): 1.9 µg/kg | metabolite concentration in urine, creatinine-normalized (U VIII, 1 h post (1.08 h)): 1.1 µg/mmol creatinine | metabolite concentration in urine (U VIII, 2 h post (2.08 h)): 1.5 µg/kg | metabolite concentration in urine, creatinine-normalized (U VIII, 2 h post (2.08 h)): 1.4 µg/mmol creatinine | metabolite concentration in urine (U VIII, 4 h post (4.07 h)): 1.6 µg/kg | metabolite concentration in urine, creatinine-normalized (U VIII, 4 h post (4.07 h)): 0.7 µg/mmol creatinine | metabolite concentration in urine (U VIII, 6 h post (6.08 h)): 1.3 µg/kg | metabolite concentration in urine, creatinine-normalized (U VIII, 6 h post (6.08 h)): 0.3 µg/mmol creatinine | metabolite concentration in urine (U VIII, 8 h post (7.90 h)): 0.8 µg/kg | metabolite concentration in urine, creatinine-normalized (U VIII, 8 h post (7.90 h)): 0.3 µg/mmol creatinine | metabolite concentration in urine (U VIII, 24 h post (23.83 h)): 0.3 µg/kg | metabolite concentration in urine, creatinine-normalized (U VIII, 24 h post (23.83 h)): 0.1 µg/mmol creatinine | metabolite concentration in urine (U VIII, pre (-0.33 h)): 0.5 µg/kg | metabolite concentration in urine, creatinine-normalized (U VIII, pre (-0.33 h)): 0.1 µg/mmol creatinine | metabolite concentration in urine (U X, 0.5 h post (0.53 h)): 0.4 µg/kg | metabolite concentration in urine, creatinine-normalized (U X, 0.5 h post (0.53 h)): 0.2 µg/mmol creatinine | metabolite concentration in urine (U X, 1 h post (1.03 h)): 0.4 µg/kg | metabolite concentration in urine, creatinine-normalized (U X, 1 h post (1.03 h)): 0.5 µg/mmol creatinine | metabolite concentration in urine (U X, 2 h post (2.03 h)): 0.3 µg/kg | metabolite concentration in urine, creatinine-normalized (U X, 2 h post (2.03 h)): 0.5 µg/mmol creatinine | metabolite concentration in urine (U X, 4 h post (3.85 h)): 0.4 µg/kg | metabolite concentration in urine, creatinine-normalized (U X, 4 h post (3.85 h)): 0.3 µg/mmol creatinine | metabolite concentration in urine (U X, 6 h post (5.80 h)): 0.5 µg/kg | metabolite concentration in urine, creatinine-normalized (U X, 6 h post (5.80 h)): 0.2 µg/mmol creatinine | metabolite concentration in urine (U X, 8 h post (7.75 h)): 0.3 µg/kg | metabolite concentration in urine, creatinine-normalized (U X, 8 h post (7.75 h)): 0.1 µg/mmol creatinine | metabolite concentration in urine (U X, 24 h post (23.97 h)): 0.2 µg/kg | metabolite concentration in urine, creatinine-normalized (U X, 24 h post (23.97 h)): 0.02 µg/mmol creatinine | metabolite concentration in urine (U X, pre (-0.07 h)): < LOD^1 | metabolite concentration in urine, creatinine-normalized (U X, pre (-0.07 h)): < LOD^1 | metabolite concentration in urine (U XI, 0.5 h post (0.50 h)): 0.4 µg/kg | metabolite concentration in urine, creatinine-normalized (U XI, 0.5 h post (0.50 h)): 0.4 µg/mmol creatinine | metabolite concentration in urine (U XI, 1 h post (1.02 h)): 0.6 µg/kg | metabolite concentration in urine, creatinine-normalized (U XI, 1 h post (1.02 h)): 0.7 µg/mmol creatinine | metabolite concentration in urine (U XI, 2 h post (2.00 h)): 0.5 µg/kg | metabolite concentration in urine, creatinine-normalized (U XI, 2 h post (2.00 h)): 0.7 µg/mmol creatinine | metabolite concentration in urine (U XI, pre (-0.08 h)): 0.8 µg/kg | metabolite concentration in urine, creatinine-normalized (U XI, pre (-0.08 h)): 0.2 µg/mmol creatinine | metabolite concentration in urine (U XII, 0.5 h post (0.48 h)): 0.3 µg/kg | metabolite concentration in urine, creatinine-normalized (U XII, 0.5 h post (0.48 h)): 0.04 µg/mmol creatinine | metabolite concentration in urine (U XII, 1 h post (1.03 h)): 0.3 µg/kg | metabolite concentration in urine, creatinine-normalized (U XII, 1 h post (1.03 h)): 0.3 µg/mmol creatinine | metabolite concentration in urine (U XII, 2 h post (1.85 h)): 0.9 µg/kg
